In test [1] the test system is human spermatozoa. Put plainly: Hamster oocyte penetration assay (Yanagimachi et al. 1976), fertilizing capacity of human spermatozoa. The class given is cell-based. To be noted: agent at its IC50 from the sperm motility curve; n=15 oocytes per group; versus control. Here is the method: The decrease of the fertilizing capacity of human spermatozoa was assayed using penetration assays in hamster oocytes according to the protocol initially described by Yanagimachi et al. (1976). Briefly, golden hamster oocytes were collected; their […] was removed, and oocytes were subsequently incubated with previously capacitated human spermatozoa at a concentration of 10^7 spermatozoa/ml. The incubation was prolonged for 3-6 hours. […] The oocytes were observed using phase contrast microscopy and were only considered to have been penetrated by spermatozoa when they contained a head in decondensation stage or a male pronucleus inside their cytoplasm.

The test system of test [2] is human spermatozoa. Put plainly: Sperm motility (immobilizing effect) assay in selected human spermatozoa (swim up). The class given is cell-based. Here is the method:
The spermicidal effect of the wild-type peptide and the constructed analog was assayed by assessing the sperm motility in human spermatozoa. For this, 15 mL of HTF-0.1% BSA medium (0.02 g BSA in 20 mL HTF) and 3 mL of HTF-1% BSA medium (0.04 g BSA in 4 mL HTF) were placed in an assay tube and incubated at 37° C. Subsequently, a sample of 2.6 mL of human semen was incubated during 25 minutes until liquefaction. Once liquefied, the sample was divided into 3 15-mL conical tubes with 2 mL of warm HTF-0.1% BSA in each tube. 860 μL of liquefied semen were vertically added to the bottom of each tube, gently pipetting to homogenize the mixture avoiding the formation of bubbles. Large clots were removed. Subsequently, the sample was centrifuged for 8 minutes at 1,800 rpm and the supernatant was discarded by touching only the surface of the medium with the pipette tip just on the tube walls and pipetting out the liquid. […] Then, spermatozoa were counted, reaching values around 10 million of selected spermatozoa per mL (10×10^6/mL). Different concentrations of the total venom and the different venom fractions obtained in the chromatographic purification, as well as the constructed analog peptide, were applied to samples of the spermatozoid previously selected and counted and were incubated in HTF medium for 45 minutes at 37° C. […]

Regarding “20-amino acid linear analog of the venom peptide, cysteine 43 replaced by alanine; SLAKTNCFTTEYFQHCVKDL [Ac-[Ala^43]-ATX41-60-NH2]”, the “decrease in the fertilizing capacity of spermatozoa” value in test [1] amounted to 82±0.3%. For the same substance, in test [2] (maximal doses (FIG. 2)), the “spermatozoids affected at maximal doses” value is 100%. Besides, the “IC50 of the immobilizing effect (spermatozoa with no progressive linear movement)” value in test [2] (selected human spermatozoa (swim up), incubated 45 minutes in HTF medium, 37° C.) was found to be 39.81 µg/mL.
